Experimental data: US11384182B2, “Supramolecular polymer composition and method of preparation thereof” (City University of Hong Kong, priority 2019, dated 2022)

Legend:
[1] = release of carvacrol in air by weight loss; assay type: physicochemical; settings: at 100 days
Description: The amount of carvacrol, i.e. the hydrophobic material in the composition, released in air was calculated by weight loss and is illustrated in FIG. 8C. The amount of carvacrol released in water was monitored by UV-vis scanning spectrophotometer (Shimadzu 1700), wherein

[2] = cited from earlier work

Cc1ccc(C(C)C)cc1O [carvacrol]
reduction of the original mass [1]: approximately 40%
saturation concentration in water [2]: about 3 mM
